Key:
Caspase-3 = biological target: T1, Caspase-3 (Homo sapiens, UniProt P42574); assay: Inhibition of human recombinant caspase 3
T1 sequence (P42574 whole entry): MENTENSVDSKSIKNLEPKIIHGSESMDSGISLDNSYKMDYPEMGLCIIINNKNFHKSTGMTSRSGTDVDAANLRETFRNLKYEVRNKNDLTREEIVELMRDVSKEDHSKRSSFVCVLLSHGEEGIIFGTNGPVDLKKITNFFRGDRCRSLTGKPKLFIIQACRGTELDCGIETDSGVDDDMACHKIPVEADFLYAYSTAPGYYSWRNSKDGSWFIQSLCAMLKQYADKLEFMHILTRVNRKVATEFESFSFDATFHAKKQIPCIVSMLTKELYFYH

Caspase-7 = biological target: T2, Caspase-7 (Homo sapiens, UniProt P55210); assay: Inhibition of human recombinant caspase 7
T2 sequence (P55210 whole entry): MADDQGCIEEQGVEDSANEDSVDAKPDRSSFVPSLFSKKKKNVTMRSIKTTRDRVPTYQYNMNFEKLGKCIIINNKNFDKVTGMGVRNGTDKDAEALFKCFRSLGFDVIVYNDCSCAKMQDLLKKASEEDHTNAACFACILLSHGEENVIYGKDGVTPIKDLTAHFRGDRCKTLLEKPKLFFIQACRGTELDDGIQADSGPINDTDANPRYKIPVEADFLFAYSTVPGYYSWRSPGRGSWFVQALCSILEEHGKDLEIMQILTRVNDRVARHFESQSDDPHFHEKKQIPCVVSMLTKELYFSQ

| Compound | IC50 (Caspase-3) [nM] | IC50 (Caspase-7) [nM] |
| --- | --- | --- |
| COC[C@@H]1CCCN1S(=O)(=O)c1ccc2c(c1)C(=O)C(=O)N2CCCOCCCOS(C)(=O)=O | > 100000 | > 100000 |
| COC[C@@H]1CCCN1S(=O)(=O)c1ccc2c(c1)C(=O)C(=O)N2CCCOCCCF | > 100000 | > 100000 |
| COC[C@@H]1CCCN1S(=O)(=O)c1ccc2c(c1)C(=O)C(=O)N2CCCOCCCO |  | 113000 |
| CCCN1C(=O)C(=O)c2cc(S(=O)(=O)N3CCC[C@H]3COC)ccc21 | 5.3 | 58 |
| COC[C@@H]1CCCN1S(=O)(=O)c1ccc2c(c1)C(=O)C(=O)N2CCCCF | 41 | 28 |
| CCN1C(=O)C(=O)c2cc(S(=O)(=O)N3CCC[C@H]3COC)ccc21 | 183 | 319 |
| CCCCN1C(=O)C(=O)c2cc(S(=O)(=O)N3CCC[C@H]3COC)ccc21 | 29 | 8.1 |
| CCCN1C(=O)C(F)(F)c2cc(S(=O)(=O)N3CCC[C@H]3COC)ccc21 | > 100000 | > 100000 |
| COC[C@@H]1CCCN1S(=O)(=O)c1ccc2c(c1)C(=O)C(=O)N2 |  | 170 |

Reference: ChEMBL document CHEMBL1153400, “Fluorinated isatin derivatives. Part 1: synthesis of new N-substituted (S)-5-[1-(2-methoxymethylpyrrolidinyl)sulfonyl]isatins as potent caspase-3 and -7 inhibitors” (Bioorg Med Chem, 2009)
